Patent US20220031871A1, “ANTIBODIES FOR CHELATED RADIONUCLIDES AND CLEARING AGENTS” (Hoffmann-La Roche Inc., priority 2018, published 2022)
Marks after values point to notes of the source that are not given here.

How the values were obtained:
[1] = tested on: LS174T tumors; assay: Protocol 93b: efficacy and biodistribution of CEA-PRIT; assay type: in vivo, SCID mice
Method: The bispecific antibodies were compared side-by-side in single- and double-cycle treatment regimens.
Groups A-G represent the treated mice that were followed up for assessment of efficacy, whereas groups H-L comprise mice that were sacrificed for biodistribution purposes 24 h after their last ^212Pb-DOTAM injection.
Solid xenografts were established by subcutaneous injection of cells in RPMI (BxPC3) or DMEM (LS174T) media mixed 1:1 with Corning® Matrigel® basement membrane matrix (growth factor reduced; cat No. 354230).
For protocol 93b, mice (age 9 weeks) were injected s.c. into the right flank with 1×10^6 LS174T cells (passage 26) in 100 μl DMEM/Matrigel. Three days after tumor cell injection, mice were sorted into experimental groups with an average tumor volume of 150 mm^3.
To minimize re-ingestion of radioactive urine/feces after treatment cycle 1, cages were changed 4 hours after ^212Pb-DOTAM administration, and then again at 24 h p.i. For cycle 2, mice were placed in cages with grilled floors for 4 hours after ^212Pb-DOTAM administration, before being transferred to new cages with standard bedding. All cages were then changed at 24 h p.i., as after cycle 1. The tumor development in the mice was followed through repeated calipering three times a week. If needed, additional calipering was performed in the gaps between scheduled measurements. The body weight of the animals was measured repeatedly in the same fashion. Mice whose tumor volume reached 3000 mm^3 were immediately euthanized. Other factors taken into account for euthanasia for ethical reasons were body weight loss, tumor status (e.g. ulceration) and general appearance of the animal. Wet food was provided to all animals starting from five days after the radioactive injection if mandated by an acute loss of body weight (collective or individual) due to radiation-induced toxicity, until all individuals had recovered sufficiently.
The following organs and tissues were harvested from groups A-G at the time of euthanasia: bladder, ovaries, liver, spleen, kidneys, femur (including bone marrow), colon, jejunum, stomach, and tumor. Unexpected or abnormal conditions were noted and photographed. Tissues were immediately put in 10% neutral buffered formalin (4° C.) and then transferred to PBS (4° C.) after 5 days. The formalin-fixed samples were then shipped to Roche Pharma Research and Early Development, Roche Innovation Center Basel, for further processing and analysis.
Mice in groups H, J, and L were sacrificed and necropsied 24 hours after their first and only injection of ^212Pb-DOTAM; groups I and K were sacrificed and necropsied 24 hours after their second ^212Pb-DOTAM injection. The following organs and tissues were harvested: blood, bladder, small intestine, colon, spleen, pancreas, kidneys, liver, lung, heart, femoral bone, muscle, tail, and tumor. Collected samples were weighed and measured for radioactivity, and the percent injected dose per gram of tissue (% ID/g) subsequently calculated, including corrections for decay and background.

[2] = tested on: s.c. BxPC3 tumors; assay: Protocol 146: radiation dosimetry (absorbed doses, MIRD); assay type: in vivo, SCID mice; settings: for Mean absorbed dose, RBE = 1 / Mean absorbed dose, RBE = 5: 20 μCi, pretargeted, tumor-bearing SCID
Method: Absorbed doses were calculated following the formalism outlined in Pamphlet No. 21 from the Medical Internal Radiation Dose (MIRD) Committee (Bolch W E, Eckerman K F, Sgouros G, and Thomas S R. J Nucl Med 2009; 50:477-484). Formally, the absorbed dose D(rT) in a target tissue or region rT is calculated as the time-integral of the activity A(rs,t) multiplied by the absorbed dose rate per unit activity S(rT←rs) summed over all source regions rs. Given that the vast majority of energy released by the ^212Pb decay chain comes from alpha radiation and furthermore by the much higher biological effectiveness of alpha radiation (as characterized by the relative biological effectiveness, RBE) two approximations were made: • 1. the energy is absorbed locally due to the short range of the alpha particles, which means that only the term s(rT←rT) is Considered, and • 2. the contribution from beta and gamma radiation is neglected.
With Δα being the energy released by alpha decays, or rather the sum of the mean energies released by alpha decays in the decay chain of ^212Pb, here expressed in units […], the absorbed dose in a target tissue or region rT is calculated by the formula: […]
The calculations are based on the composite (average) decay-corrected radioactive concentration at time t, expressed as [% ID^t/g]t. In a first step, these are transformed into radioactive concentrations as μCi per kg tissue weight for the target tissue rT:
AQ[μCi] is the injected activity and λ is the exponential decay rate for ^212Pb, 0.0651 h^−1 (corresponding to the 10.6-hour half-life).
In a second step, the radioactive concentration was integrated over time for each tissue. This was achieved using the “Linear Log Trapezoidal calculation method” in the pharmacokinetic software Phoenix WinNonlin 6.4 (Certara USA, Inc., 100 Overlook Center, Suite 101, Princeton, N.J. 08540 USA). The model type “Plasma” was used with uniform weighting.
In the final step, absorbed doses were calculated by multiplying the time integrals of the radioactive concentration by the energy release Δα=170·10^−6J/(μCi·h).
The mean absorbed doses in Gy calculated for protocol 146 are shown in Table 24, both as absolute values (RBE=1) and corrected for the higher cytotoxicity of alpha emitters (RBE=5).

[3] = labelled group 30 + 30 μCi 212Pb-DOTAM, multiple test level = 0.00238

NC(=O)CN1CCN(CC(N)=O)CCN(CC(N)=O)CCN(CC(N)=O)CC1.[212Pb+2] [^212Pb-DOTAM]
TGI ([1]; day 22, 30+30 μCi, compared with PBS): 64.7%
Pairwise Log-Rank Test, survival, p vs PRIT-0175 30 + 30 μCi [1, 3]: 0.0090*
Pairwise Log-Rank Test, survival, p vs PRIT-0213 30 + 30 μCi [1, 3]: <0.0001*
Pairwise Log-Rank Test, survival, p vs PRIT-0213 30 μCi [1, 3]: <.0001*
Pairwise Log-Rank Test, survival, p vs PRIT-0214 30 + 30 μCi [1, 3]: <.0001*
Pairwise Log-Rank Test, survival, p vs PRIT-0214 30 μCi [1, 3]: 0.0091*
Pairwise Log-Rank Test, survival, p vs Vehicle (PBS) [1, 3]: 0.0034*
Pairwise Wilcoxon Test, survival, p vs PRIT-0175 30 + 30 μCi [1, 3]: 0.0417*
Pairwise Wilcoxon Test, survival, p vs PRIT-0213 30 + 30 μCi [1, 3]: 0.0002*
Pairwise Wilcoxon Test, survival, p vs PRIT-0213 30 μCi [1, 3]: 0.0002*
Pairwise Wilcoxon Test, survival, p vs PRIT-0214 30 + 30 μCi [1, 3]: 0.0002*
Pairwise Wilcoxon Test, survival, p vs PRIT-0214 30 μCi [1, 3]: 0.0160*
Pairwise Wilcoxon Test, survival, p vs Vehicle (PBS) [1, 3]: 0.0111*
absorbed dose in most normal tissues, except bladder ([2]; 20 μCi ^212Pb-DOTAM, RBE=1): below 2 Gy
Mean absorbed dose, RBE = 1 ([2]; Abdominal fat): 1.25 Gy
Mean absorbed dose, RBE = 5 ([2]; Abdominal fat): 6.25 Gy
Mean absorbed dose, RBE = 1 ([2]; Bladder): 6.53 Gy
Mean absorbed dose, RBE = 5 ([2]; Bladder): 32.64 Gy
Mean absorbed dose, RBE = 1 ([2]; Blood): 0.72 Gy
Mean absorbed dose, RBE = 5 ([2]; Blood): 3.60 Gy
Mean absorbed dose, RBE = 1 ([2]; Brain): 0.04 Gy
Mean absorbed dose, RBE = 5 ([2]; Brain): 0.19 Gy
Mean absorbed dose, RBE = 1 ([2]; Colon): 0.43 Gy
Mean absorbed dose, RBE = 5 ([2]; Colon): 2.17 Gy
Mean absorbed dose, RBE = 1 ([2]; Femoral bone): 0.27 Gy
Mean absorbed dose, RBE = 5 ([2]; Femoral bone): 1.33 Gy
Mean absorbed dose, RBE = 1 ([2]; Heart): 0.33 Gy
Mean absorbed dose, RBE = 5 ([2]; Heart): 1.63 Gy
Mean absorbed dose, RBE = 1 ([2]; Kidneys): 1.43 Gy
Mean absorbed dose, RBE = 5 ([2]; Kidneys): 7.14 Gy
Mean absorbed dose, RBE = 1 ([2]; Liver): 0.22 Gy
Mean absorbed dose, RBE = 5 ([2]; Liver): 1.09 Gy
Mean absorbed dose, RBE = 1 ([2]; Lung): 1.34 Gy
Mean absorbed dose, RBE = 5 ([2]; Lung): 6.69 Gy
Mean absorbed dose, RBE = 1 ([2]; Muscle): 0.29 Gy
Mean absorbed dose, RBE = 5 ([2]; Muscle): 1.47 Gy
Mean absorbed dose, RBE = 1 ([2]; Pancreas): 0.36 Gy
Mean absorbed dose, RBE = 5 ([2]; Pancreas): 1.80 Gy
Mean absorbed dose, RBE = 1 ([2]; Serum): 1.64 Gy
Mean absorbed dose, RBE = 5 ([2]; Serum): 8.20 Gy
Mean absorbed dose, RBE = 1 ([2]; Skin): 0.47 Gy
Mean absorbed dose, RBE = 5 ([2]; Skin): 2.33 Gy
Mean absorbed dose, RBE = 1 ([2]; Small intestine): 0.22 Gy
Mean absorbed dose, RBE = 5 ([2]; Small intestine): 1.08 Gy
Mean absorbed dose, RBE = 1 ([2]; Spleen): 0.27 Gy
Mean absorbed dose, RBE = 5 ([2]; Spleen): 1.36 Gy
Mean absorbed dose, RBE = 1 ([2]; Stomach): 0.24 Gy
Mean absorbed dose, RBE = 5 ([2]; Stomach): 1.20 Gy
Mean absorbed dose, RBE = 1 ([2]; Tail): 0.54 Gy
Mean absorbed dose, RBE = 5 ([2]; Tail): 2.69 Gy
Mean absorbed dose, RBE = 1 ([2]; Tumor (BxPC3)): 19.91 Gy
Mean absorbed dose, RBE = 5 ([2]; Tumor (BxPC3)): 99.55 Gy
Mean absorbed dose, RBE = 1 ([2]; Uterus): 0.61 Gy
Mean absorbed dose, RBE = 5 ([2]; Uterus): 3.04 Gy
